Patent publication US20240139211A1, “METHODS AND COMPOSITIONS FOR TREATING AMYOTROPHIC LATERAL SCLEROSIS” (Amylyx Pharmaceuticals, Inc., priority 2022, published 2024)
Where two headings read alike, the source gives them in different places.

Assays:
BCRP = biological target: T1, BCRP (Homo sapiens, UniProt Q9UNQ0); test: Inhibitor of BCRP, 3H-estrone-3-sulfate efflux in Caco-2 cells
T1 sequence (Q9UNQ0 1-655): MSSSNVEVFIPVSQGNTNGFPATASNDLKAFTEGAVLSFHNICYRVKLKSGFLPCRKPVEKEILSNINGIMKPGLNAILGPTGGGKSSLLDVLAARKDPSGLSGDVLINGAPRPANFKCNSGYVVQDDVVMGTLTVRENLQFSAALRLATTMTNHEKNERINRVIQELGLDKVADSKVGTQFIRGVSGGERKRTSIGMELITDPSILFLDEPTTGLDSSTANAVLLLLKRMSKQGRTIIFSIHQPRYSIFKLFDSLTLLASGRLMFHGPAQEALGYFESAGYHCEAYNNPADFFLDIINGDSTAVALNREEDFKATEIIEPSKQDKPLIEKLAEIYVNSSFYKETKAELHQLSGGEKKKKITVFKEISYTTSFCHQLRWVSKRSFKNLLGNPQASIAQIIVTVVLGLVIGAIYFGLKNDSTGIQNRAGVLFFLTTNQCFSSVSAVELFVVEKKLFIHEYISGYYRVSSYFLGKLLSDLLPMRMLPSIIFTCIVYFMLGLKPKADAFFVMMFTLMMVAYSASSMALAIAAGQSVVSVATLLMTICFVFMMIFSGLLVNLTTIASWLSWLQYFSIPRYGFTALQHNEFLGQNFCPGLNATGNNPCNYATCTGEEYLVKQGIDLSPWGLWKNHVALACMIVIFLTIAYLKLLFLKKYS

OCT2 = biological target: T2, OCT2 (Homo sapiens, UniProt O15244); test: Inhibitor of OCT2, probe substrate uptake; conditions: for Inhibition of OCT2 / Inhibitor of OCT2: two concentrations per test article
T2 sequence (O15244 1-555): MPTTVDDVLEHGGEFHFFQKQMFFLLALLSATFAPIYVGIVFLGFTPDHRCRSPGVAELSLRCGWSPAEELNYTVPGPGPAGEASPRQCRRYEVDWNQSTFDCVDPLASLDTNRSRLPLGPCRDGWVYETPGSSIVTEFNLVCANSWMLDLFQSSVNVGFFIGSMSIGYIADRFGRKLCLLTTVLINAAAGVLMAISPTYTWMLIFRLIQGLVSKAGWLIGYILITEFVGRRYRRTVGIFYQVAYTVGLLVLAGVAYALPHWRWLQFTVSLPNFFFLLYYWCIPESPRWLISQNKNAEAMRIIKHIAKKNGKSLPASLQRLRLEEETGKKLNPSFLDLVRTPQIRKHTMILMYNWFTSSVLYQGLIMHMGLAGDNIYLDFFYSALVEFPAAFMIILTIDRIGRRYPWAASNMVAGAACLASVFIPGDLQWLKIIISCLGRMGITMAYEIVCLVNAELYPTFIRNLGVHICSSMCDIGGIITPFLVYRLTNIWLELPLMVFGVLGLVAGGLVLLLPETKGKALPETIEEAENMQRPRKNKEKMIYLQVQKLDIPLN

OATP1B1 = OATP1B1 (Homo sapiens, UniProt Q9Y6L6); test: in vitro
CYP1A2 mRNA = test: CYP1A2 gene expression induction in hepatocyte cultures; conditions: for Emax, CYP1A2 gene expression: Donor 1; for Inducer of CYP1A2 (conclusion): gene expression and enzyme activity, three donors
CYP2B6 mRNA = test: in vitro; conditions: human
MATE2K = MATE2K (Homo sapiens, UniProt Q86VL8); test: Inhibitor of MATE2-K, probe substrate uptake; conditions: for Inhibition of MATE2-K / Inhibitor of MATE2-K: two concentrations per test article; for potency estimated from few doses: read-out: Estimated IC50, MATE2-K
OAT1 = biological target: T3, OAT1 (Homo sapiens, UniProt Q4U2R8); test: Inhibitor of OAT1, probe substrate uptake; conditions: for Inhibition of OAT1 / Inhibitor of OAT1: two concentrations per test article; for potency estimated from few doses: read-out: Estimated IC50, OAT1
T3 sequence (Q4U2R8 1-563): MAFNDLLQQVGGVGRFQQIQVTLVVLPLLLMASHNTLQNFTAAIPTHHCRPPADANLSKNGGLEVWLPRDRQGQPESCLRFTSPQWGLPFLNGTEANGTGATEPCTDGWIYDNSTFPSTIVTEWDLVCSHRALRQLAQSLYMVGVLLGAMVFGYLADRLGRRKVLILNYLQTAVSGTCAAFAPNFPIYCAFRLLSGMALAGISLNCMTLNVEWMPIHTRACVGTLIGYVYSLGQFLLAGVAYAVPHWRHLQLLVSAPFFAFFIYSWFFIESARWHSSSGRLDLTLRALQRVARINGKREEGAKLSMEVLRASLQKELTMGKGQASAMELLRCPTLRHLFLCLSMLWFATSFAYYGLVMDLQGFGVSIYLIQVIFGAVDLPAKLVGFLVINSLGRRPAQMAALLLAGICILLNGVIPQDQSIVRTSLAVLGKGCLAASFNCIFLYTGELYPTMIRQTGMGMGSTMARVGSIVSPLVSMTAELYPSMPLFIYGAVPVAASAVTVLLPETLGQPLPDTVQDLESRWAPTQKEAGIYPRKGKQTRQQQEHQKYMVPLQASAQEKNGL

P-gp = P-gp (Homo sapiens, UniProt P08183); test: in vitro
[1] = Chemical stability in HBSSg_7.4 and HBSS_8.5; type: physicochemical; conditions: for Chemical stability in the tested matrices: 0.5 μM, 37° C., HBSSg_7.4 and HBSS_8.5
Method: At pre-determined time points, an equal volume of acetonitrile with internal standard was added to each vial, and the mixture was placed at 4° C. until the end of the assay. The peak areas of the test article and IS of each sample were determined by LC-MS/MS, and the ratios of the peak areas (analyte:IS) were calculated.

OATP1B3 = OATP1B3 (Homo sapiens, UniProt Q9NPD5); test: Substrate of OATP1B3, uptake in HEK293 cells
Description: Vector-transfected HEK cells were used as a control.

[2] = Relevant plasma concentrations for in vitro transporter assessment; type: in vivo; conditions: for Plasma Cmax (total [I]1): component of AMX0035, highest oral dose TUDCA 1000 mg, PB 3000 mg; for Unbound [I]m, max: projected unbound Iin; for Unbound Cmax (Unbound [I]1): projected, from total Cmax and plasma protein binding
[3] = Caco-2, two concentrations per test article
[4] = two concentrations per test article, Caco-2 cells
[5] = HBSSg_7.4, Overnight (~1020-[…])
[6] = HBSSg_8.5, Overnight (~1020-[…])
[7] = higher test concentration (UDCA: second assay)
[8] = lower test concentration (UDCA: second assay)
[9] = estimated from two concentrations

Chain of MATE2K (Q86VL8 1-566 isoform Q86VL8-3): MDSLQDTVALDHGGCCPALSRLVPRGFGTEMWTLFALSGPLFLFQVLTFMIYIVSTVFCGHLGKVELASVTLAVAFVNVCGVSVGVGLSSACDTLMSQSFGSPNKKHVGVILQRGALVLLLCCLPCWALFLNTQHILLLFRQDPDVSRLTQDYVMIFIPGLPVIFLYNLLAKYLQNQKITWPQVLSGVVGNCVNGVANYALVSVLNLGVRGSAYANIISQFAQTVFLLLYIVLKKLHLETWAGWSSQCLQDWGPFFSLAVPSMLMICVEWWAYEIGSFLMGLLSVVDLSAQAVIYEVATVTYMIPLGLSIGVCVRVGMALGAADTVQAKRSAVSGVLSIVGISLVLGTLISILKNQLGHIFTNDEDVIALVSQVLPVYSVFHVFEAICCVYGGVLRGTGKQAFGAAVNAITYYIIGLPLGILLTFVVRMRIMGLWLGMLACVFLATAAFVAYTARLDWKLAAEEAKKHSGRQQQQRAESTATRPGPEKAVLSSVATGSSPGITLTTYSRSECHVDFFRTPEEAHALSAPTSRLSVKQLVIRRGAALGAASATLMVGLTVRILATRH
Chain of OATP1B3 (Q9NPD5 whole entry): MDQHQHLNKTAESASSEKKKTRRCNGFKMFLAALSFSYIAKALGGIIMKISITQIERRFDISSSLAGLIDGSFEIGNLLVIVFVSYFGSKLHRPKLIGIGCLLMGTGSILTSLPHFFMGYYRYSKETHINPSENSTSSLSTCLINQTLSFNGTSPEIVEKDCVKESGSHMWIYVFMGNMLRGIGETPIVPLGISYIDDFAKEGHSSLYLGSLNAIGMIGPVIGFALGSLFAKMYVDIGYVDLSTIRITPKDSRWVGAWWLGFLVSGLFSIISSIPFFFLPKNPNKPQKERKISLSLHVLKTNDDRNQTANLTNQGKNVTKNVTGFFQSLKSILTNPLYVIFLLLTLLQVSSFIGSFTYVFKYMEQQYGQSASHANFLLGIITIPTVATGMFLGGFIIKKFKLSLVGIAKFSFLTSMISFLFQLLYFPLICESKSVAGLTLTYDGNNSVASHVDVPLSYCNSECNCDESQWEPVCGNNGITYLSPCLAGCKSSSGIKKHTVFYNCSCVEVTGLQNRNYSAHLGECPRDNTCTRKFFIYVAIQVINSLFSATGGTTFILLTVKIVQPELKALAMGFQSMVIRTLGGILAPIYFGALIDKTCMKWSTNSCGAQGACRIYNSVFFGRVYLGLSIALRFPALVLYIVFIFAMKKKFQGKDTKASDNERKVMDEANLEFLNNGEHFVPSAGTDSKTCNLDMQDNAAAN
Chain of P-gp (P08183 whole entry): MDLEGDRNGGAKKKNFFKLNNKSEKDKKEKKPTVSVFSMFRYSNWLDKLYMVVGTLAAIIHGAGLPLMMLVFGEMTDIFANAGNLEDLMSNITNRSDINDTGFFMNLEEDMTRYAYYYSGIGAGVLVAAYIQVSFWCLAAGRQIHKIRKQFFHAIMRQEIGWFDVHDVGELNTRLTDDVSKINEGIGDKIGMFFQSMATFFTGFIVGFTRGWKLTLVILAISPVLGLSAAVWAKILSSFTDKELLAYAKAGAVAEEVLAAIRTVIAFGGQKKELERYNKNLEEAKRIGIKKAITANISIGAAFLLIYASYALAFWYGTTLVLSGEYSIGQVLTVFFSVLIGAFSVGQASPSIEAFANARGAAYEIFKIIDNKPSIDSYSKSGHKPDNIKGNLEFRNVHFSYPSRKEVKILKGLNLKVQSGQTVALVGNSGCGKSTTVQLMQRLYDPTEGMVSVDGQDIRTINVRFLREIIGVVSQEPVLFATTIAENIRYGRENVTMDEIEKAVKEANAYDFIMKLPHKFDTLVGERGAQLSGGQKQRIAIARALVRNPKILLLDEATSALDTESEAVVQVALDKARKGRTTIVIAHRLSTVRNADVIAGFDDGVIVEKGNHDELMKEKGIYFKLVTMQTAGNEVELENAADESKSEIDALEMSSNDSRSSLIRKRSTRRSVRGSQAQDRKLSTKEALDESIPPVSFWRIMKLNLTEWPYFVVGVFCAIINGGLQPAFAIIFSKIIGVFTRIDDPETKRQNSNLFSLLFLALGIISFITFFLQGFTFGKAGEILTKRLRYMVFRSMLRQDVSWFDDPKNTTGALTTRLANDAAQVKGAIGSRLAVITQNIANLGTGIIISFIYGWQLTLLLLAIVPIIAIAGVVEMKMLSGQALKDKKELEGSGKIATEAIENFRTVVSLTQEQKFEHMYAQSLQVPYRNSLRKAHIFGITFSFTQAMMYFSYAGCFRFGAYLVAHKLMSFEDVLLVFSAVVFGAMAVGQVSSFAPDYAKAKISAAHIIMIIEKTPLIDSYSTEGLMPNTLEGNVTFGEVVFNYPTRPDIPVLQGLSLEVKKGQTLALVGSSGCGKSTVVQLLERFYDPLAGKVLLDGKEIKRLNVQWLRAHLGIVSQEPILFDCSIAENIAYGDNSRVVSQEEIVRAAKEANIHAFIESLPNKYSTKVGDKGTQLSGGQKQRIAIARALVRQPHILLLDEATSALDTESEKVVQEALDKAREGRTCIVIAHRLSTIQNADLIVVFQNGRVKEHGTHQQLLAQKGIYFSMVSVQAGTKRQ
Chain of OATP1B1 (Q9Y6L6 whole entry): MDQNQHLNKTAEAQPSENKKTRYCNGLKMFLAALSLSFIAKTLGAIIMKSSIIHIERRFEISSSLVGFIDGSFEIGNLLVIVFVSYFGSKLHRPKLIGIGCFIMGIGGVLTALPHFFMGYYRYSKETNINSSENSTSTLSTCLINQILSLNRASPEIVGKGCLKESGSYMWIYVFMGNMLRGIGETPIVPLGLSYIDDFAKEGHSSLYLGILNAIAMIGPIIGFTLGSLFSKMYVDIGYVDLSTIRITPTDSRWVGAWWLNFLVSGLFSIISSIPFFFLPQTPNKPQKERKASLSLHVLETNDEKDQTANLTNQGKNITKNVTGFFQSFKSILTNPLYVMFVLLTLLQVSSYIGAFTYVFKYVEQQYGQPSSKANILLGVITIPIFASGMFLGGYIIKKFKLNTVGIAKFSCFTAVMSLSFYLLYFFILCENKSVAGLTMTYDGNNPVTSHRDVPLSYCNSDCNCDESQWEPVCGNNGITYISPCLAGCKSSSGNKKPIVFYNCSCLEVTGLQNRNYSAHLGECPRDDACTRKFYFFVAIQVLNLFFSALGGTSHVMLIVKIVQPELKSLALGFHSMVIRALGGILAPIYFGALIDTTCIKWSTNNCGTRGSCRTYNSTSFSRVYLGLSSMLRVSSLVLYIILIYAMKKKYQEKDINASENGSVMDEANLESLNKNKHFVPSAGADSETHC

| Molecule | Inhibitor of BCRP (BCRP; [3]) | Inhibitor of BCRP (BCRP; [4]) | Inhibition of OCT2 (OCT2) | Inhibitor of OCT2 (OCT2) | potency estimated from few doses (OATP1B1) | Emax, CYP1A2 gene expression (CYP1A2 mRNA) | Inducer of CYP1A2 (conclusion) (CYP1A2 mRNA) | Inhibition of MATE2-K (MATE2K) | Inhibitor of MATE2-K (MATE2K) | Inhibition of OAT1 (OAT1) | Inhibitor of OAT1 (OAT1) | Chemical stability in the tested matrices [1] | Percent of the 0-minute value ([1]; HBSSg_7.4, 0 minutes) | Percent of the 0-minute value ([1]; HBSSg_7.4, 120 minutes) | Percent of the 0-minute value [1, 5] | Percent of the 0-minute value ([1]; HBSSg_8.5, 0 minutes) | Remaining BCRP activity, % of the control (BCRP; [7]) | Remaining BCRP activity, % of the control (BCRP; [8]) | Substrate of OATP1B3 (OATP1B3; test article 1 and 10 μM) | potency estimated from few doses (OAT1; [9]) | further results |
| --- | --- | --- | --- | --- | --- | --- | --- | --- | --- | --- | --- | --- | --- | --- | --- | --- | --- | --- | --- | --- | --- |
| C[C@H](CCC(=O)NCC(=O)O)[C@H]1CC[C@H]2[C@@H]3[C@@H](O)C[C@@H]4C[C@H](O)CC[C@]4(C)[C@H]3CC[C@]12C [Glycoursodeoxycholic acid, glycoursodeoxycholic acid] | identified as an inhibitor | Yes | did not inhibit | No | ~10 µM | 11.7 fold | as an inducer | did not inhibit | No | did not inhibit | No | – | – | – | – | – | – | – | – | – | potency estimated from few doses (BCRP; read-out: Estimated IC50, BCRP, estimated from two concentrations, Caco-2 cells): > 100 µM; Maximum fold induction of CYP1A2 gene expression (CYP1A2 mRNA; Donor 2): 13.0 fold; Maximum fold induction of CYP1A2 gene expression (CYP1A2 mRNA; Donor 3): 7.83 fold; EC50 at 72 h (CYP2B6 mRNA; hepatocyte cultures): 1.74 µM; fold induction at 72 h (CYP2B6 mRNA; hepatocyte cultures): 5.83; potency estimated from few doses (P-gp; Caco-2 cells, probe 3H-digoxin): < 10 µM |
| tauroursodeoxycholic acid [TUDCA] | not an inhibitor | No | did not inhibit | No | – | – | did not meet the classification requirements to be identified as an inducer | inhibited | Yes | did not inhibit | No | appeared to be stable | 100% | 101% | 95.3% | 100% | 92.3% | 111% | Yes | – | Percent of the 0-minute value ([1]; HBSSg_8.5, 120 minutes): 90.8%; Percent of the 0-minute value [1, 6]: 96.5%; Uptake by OATP1B3 (OATP1B3; 1 and 10 μM): 5.90 pmol/minute/mg protein; Uptake activity remaining, MATE2-K (MATE2K; concentration not stated (5 and 50 μM tested)): 44.3%; potency estimated from few doses (MATE2K; [9]): < 50 µM; potency estimated from few doses (MATE2K; estimated from two doses): < 50 µM; Plasma Cmax (total [I]1) [2]: 108 µM; Unbound [I]m, max [2]: 3.48 µM; Unbound Cmax (Unbound [I]1) [2]: 1.62 µM |
| O=C(O)CCCc1ccccc1 [PB, sodium phenylbutyrate] | not an inhibitor | No | did not inhibit | No | – | – | – | did not inhibit | No | inhibited | Yes | appeared to be stable | 100% | 99.3% | 105% | 100% | 84.7% | 125% | – | < 25 µM | Percent of the 0-minute value ([1]; HBSSg_8.5, 120 minutes): 79.4%; Percent of the 0-minute value [1, 6]: 98.6%; Plasma Cmax (total [I]1) [2]: 826 µM; Unbound [I]m, max [2]: 326 µM; Unbound Cmax (Unbound [I]1) [2]: 148 µM; Uptake activity remaining, OAT1 (OAT1; 25 μM): 21.1% |
| O=C(O)Cc1ccccc1 [Phenylacetic acid, phenylacetic acid] | not an inhibitor | No | inhibited | Yes | > 7500 µM | 3.32 fold | – | did not inhibit | No | inhibited | Yes | – | – | – | – | – | 199% | 162% | Yes | < 750 µM | Uptake activity remaining, OCT2 (OCT2; 7500 μM): 24.5%; potency estimated from few doses (OCT2; read-out: Estimated IC50, OCT2, estimated from two concentrations): < 7500 µM; Uptake in OATP1B3 cells (OATP1B3; 1 μM): 5.27 pmol/minute/mg protein; Net OATP1B3 uptake remaining with inhibitor (OATP1B3; 10 μM): 79.0%; Uptake in OATP1B3 cells (OATP1B3; 10 μM): 19.3 pmol/min/mg; Substrate of OATP1B3 (OATP1B3; 1 and 10 μM): identified as a substrate; EC50 at 72 h (CYP2B6 mRNA): 19.5 µM; Uptake activity remaining, OAT1 (OAT1; 750 μM): 35.2%; potency estimated from few doses (P-gp): > 7500 µM |
| ursodeoxycholic acid | not an inhibitor | No | did not inhibit | No | – | – | – | inhibited | Yes | inhibited | Yes | – | – | – | – | – | 155% | 228% | No | < 500 µM | BCRP activity, % of the control (BCRP; first assay, 500 μM): 130%; Substrate of OATP1B3 (OATP1B3; 1 and 10 μM): not a substrate; potency estimated from few doses (MATE2K; [9]): > 500 µM; potency estimated from few doses (MATE2K; estimated from two doses): > 500 µM; potency estimated from few doses (OAT1; estimated from two doses): < 500 µM |
